Test results from ChEMBL document CHEMBL5346882 (Eur J Med Chem, 2023).
pIC50: −log10 of the molar value.

Key:
Cholinesterase [1] = molecular target: T1, Cholinesterase (Homo sapiens, UniProt P06276)
Description: Inhibition of human recombinant BuChE using butyrylthiocholine iodide as substrate preincubated for 5 mins followed by substrate addition and measured after 5 mins by DTNB-reagent based Ellman's method

Cholinesterase [2] = molecular target: Cholinesterase (Equus caballus, UniProt P81908)
Description: Inhibition of horse serum BuChE using butyrylthiocholine iodide as substrate preincubated for 5 mins followed by substrate addition and measured after 5 mins by DTNB-reagent based Ellman's method

[3] = Toxicity in Albino Swiss CD-1 mouse model of scopolamine induced memory deficit assessed as sedation at 30 mg/kg, ip pretreated for 30 mins followed by scopolamine administration and measured after 30 mins; format: organism-based; conditions: in vivo, 1 h, time 60 min
hERG (KCNH2) = hERG (KCNH2) (Homo sapiens, UniProt Q12809); experiment: Inhibition of human ERG at 10 uM relative to control; format: toxicity
Cytochrome P450 2D6 = Cytochrome P450 2D6 (Homo sapiens, UniProt P10635); experiment: Inhibition of CYP2D6 (unknown origin) at 10 uM; format: ADME
in vitro = conditions: human, HepG2 cells
Description: Hepatotoxicity in human HepG2 cells assessed as reduction in cell viability incubated for 72 hrs by MTS assay

[4] = Toxicity in Albino Swiss CD-1 mouse model of scopolamine induced memory deficit assessed as motor deficit at 30 mg/kg, ip pretreated for 30 mins followed by scopolamine administration and measured after 30 mins; format: organism-based; conditions: in vivo, 1 h, time 60 min
[5] = molecular target: ATP-dependent translocase ABCB1 (Homo sapiens, UniProt P08183); experiment: Substrate activity at P-gp membranes (unknown origin) at 100 uM incubated for 40 mins by luminescent glo assay relative to control; format: ADME, cell membranes, Membrane
Cytochrome P450 3A4 = Cytochrome P450 3A4 (Homo sapiens, UniProt P08684); experiment: Inhibition of CYP3A4 (unknown origin) at 10 uM; format: ADME
Cholinesterase [6] = molecular target: T1, Cholinesterase; experiment: Inhibition of human recombinant BuChE using butyrylthiocholine iodide as substrate at 1 uM preincubated for 5 mins followed by substrate addition and measured after 5 mins by DTNB-reagent based Ellman's method relative to control; conditions: time 10.0 min
[7] = molecular target: Cholinesterase (Equus caballus) (UniProt P81908); experiment: Inhibition of horse serum BuChE using butyrylthiocholine iodide as substrate at 10 uM preincubated for 5 mins followed by substrate addition and measured after 5 mins by DTNB-reagent based Ellman's method relative to control; format: cell-free; conditions: time 10.0 min
cells [8] = conditions: Mus musculus, HEK293
Description: Inhibition of mouse GAT3 expressed in HEK293 cells assessed as reduction in [3H]-GABA uptake incubated for 10 mins

GABA transporter 4 = molecular target: T2, GABA transporter 4 (Mus musculus, UniProt P31650); experiment: Inhibition of mouse GAT4 expressed in HEK293 cells assessed as reduction in [3H]-GABA uptake incubated for 10 mins; format: cell-based
T2 sequence (P31650 whole entry): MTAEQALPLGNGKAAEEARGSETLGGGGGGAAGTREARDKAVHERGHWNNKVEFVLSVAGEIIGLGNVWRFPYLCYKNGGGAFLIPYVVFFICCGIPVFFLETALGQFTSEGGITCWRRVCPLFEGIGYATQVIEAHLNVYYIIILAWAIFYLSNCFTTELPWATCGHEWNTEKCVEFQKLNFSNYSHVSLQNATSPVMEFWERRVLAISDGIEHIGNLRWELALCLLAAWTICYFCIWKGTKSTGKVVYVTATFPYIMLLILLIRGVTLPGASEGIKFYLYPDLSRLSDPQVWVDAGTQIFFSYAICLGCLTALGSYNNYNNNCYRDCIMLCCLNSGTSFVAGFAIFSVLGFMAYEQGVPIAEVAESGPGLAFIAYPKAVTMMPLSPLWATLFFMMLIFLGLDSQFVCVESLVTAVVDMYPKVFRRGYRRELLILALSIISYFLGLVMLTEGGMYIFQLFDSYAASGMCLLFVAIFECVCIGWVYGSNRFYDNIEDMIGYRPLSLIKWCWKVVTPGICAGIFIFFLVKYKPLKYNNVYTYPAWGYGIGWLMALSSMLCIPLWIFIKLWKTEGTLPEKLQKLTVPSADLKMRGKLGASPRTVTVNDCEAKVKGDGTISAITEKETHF

cells [9] = conditions: Mus musculus, HEK293; remark: listed apart in the source
Description: Inhibition of mouse GAT2 expressed in HEK293 cells assessed as reduction in [3H]-GABA uptake incubated for 10 mins

[10] = molecular target: Sodium- and chloride-dependent GABA transporter 1 (Mus musculus, UniProt P31648); experiment: Inhibition of mouse GAT1 expressed in HEK293 cells assessed as reduction in [3H]-GABA uptake incubated for 10 mins; format: cell-based
[11] = Drug metabolism in human liver microsomes assessed as N-dealkylation mediated metabolite formation; format: ADME, Microsome
[12] = Metabolic stability in human liver microsomes assessed as parent compound remaining incubated for 120 mins in presence of NADPH regeneration system by UPLC/MS analysis; format: ADME, Microsome; conditions: read-out: Stability
[13] = Drug metabolism in human liver microsomes assessed as hydroxylation mediated metabolite formation; format: ADME, Microsome
[14] = Drug metabolism in human liver microsomes assessed as oxidation mediated metabolite formation; format: ADME, Microsome

T1 sequence (P06276 whole entry): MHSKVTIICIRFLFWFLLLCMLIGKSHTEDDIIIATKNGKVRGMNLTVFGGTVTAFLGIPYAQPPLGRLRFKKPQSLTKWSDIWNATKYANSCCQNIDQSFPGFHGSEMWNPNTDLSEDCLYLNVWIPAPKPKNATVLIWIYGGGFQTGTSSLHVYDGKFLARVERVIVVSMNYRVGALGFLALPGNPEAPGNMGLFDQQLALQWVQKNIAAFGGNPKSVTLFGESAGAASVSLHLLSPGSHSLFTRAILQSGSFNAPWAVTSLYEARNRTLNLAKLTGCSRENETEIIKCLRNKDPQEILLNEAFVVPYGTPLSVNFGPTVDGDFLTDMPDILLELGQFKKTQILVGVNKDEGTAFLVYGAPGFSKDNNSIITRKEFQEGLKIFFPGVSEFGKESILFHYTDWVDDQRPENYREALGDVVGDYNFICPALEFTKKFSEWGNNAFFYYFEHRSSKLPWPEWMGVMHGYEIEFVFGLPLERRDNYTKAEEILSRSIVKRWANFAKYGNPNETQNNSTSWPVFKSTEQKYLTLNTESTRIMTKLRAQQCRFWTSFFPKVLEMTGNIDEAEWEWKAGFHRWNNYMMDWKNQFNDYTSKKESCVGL
Sequence of Cytochrome P450 2D6 (P10635 whole entry): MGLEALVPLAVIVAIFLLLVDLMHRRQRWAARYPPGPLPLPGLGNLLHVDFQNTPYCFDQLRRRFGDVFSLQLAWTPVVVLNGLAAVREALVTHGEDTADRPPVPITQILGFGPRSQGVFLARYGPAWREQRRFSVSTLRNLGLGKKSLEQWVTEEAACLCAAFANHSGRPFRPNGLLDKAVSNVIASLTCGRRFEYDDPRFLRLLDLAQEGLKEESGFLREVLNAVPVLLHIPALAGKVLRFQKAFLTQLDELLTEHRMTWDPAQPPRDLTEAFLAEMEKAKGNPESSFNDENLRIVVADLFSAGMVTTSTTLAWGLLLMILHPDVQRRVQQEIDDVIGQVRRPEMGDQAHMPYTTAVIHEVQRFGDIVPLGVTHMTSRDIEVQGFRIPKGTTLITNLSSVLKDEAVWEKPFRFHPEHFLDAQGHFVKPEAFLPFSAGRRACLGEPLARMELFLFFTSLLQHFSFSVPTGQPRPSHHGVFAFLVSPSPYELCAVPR
Sequence of Cytochrome P450 3A4 (P08684 whole entry): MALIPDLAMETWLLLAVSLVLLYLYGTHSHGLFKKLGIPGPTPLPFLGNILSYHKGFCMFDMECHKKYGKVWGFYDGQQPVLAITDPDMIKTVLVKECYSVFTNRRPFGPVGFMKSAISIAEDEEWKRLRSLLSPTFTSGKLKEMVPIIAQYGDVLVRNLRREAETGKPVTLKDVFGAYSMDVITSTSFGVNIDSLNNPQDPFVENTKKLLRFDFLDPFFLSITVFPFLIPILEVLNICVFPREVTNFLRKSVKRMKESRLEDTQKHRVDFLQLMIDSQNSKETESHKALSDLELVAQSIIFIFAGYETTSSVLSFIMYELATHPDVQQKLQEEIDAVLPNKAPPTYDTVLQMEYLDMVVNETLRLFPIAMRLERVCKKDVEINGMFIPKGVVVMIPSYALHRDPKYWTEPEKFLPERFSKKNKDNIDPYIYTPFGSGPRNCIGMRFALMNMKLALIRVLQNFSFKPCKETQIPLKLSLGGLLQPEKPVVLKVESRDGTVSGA
Sequence of Cholinesterase (Equus caballus) (P81908 whole entry): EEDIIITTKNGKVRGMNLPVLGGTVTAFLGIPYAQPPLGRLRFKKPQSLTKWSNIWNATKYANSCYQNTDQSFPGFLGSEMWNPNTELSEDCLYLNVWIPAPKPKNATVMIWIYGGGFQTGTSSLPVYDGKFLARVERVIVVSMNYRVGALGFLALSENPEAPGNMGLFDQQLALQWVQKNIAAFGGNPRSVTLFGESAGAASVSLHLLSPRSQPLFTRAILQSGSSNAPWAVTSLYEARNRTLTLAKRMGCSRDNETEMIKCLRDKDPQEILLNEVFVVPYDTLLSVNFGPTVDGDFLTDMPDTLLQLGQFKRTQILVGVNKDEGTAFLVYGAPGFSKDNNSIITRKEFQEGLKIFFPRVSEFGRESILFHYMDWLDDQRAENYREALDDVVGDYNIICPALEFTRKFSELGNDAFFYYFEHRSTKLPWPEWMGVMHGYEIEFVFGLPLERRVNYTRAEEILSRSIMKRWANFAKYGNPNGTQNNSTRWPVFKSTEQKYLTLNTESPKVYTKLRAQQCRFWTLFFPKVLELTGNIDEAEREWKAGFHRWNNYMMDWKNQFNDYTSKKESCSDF
Sequence of Cholinesterase (Equus caballus, UniProt P81908) (P81908 whole entry): as above
Sequence of hERG (KCNH2) (Q12809 whole entry): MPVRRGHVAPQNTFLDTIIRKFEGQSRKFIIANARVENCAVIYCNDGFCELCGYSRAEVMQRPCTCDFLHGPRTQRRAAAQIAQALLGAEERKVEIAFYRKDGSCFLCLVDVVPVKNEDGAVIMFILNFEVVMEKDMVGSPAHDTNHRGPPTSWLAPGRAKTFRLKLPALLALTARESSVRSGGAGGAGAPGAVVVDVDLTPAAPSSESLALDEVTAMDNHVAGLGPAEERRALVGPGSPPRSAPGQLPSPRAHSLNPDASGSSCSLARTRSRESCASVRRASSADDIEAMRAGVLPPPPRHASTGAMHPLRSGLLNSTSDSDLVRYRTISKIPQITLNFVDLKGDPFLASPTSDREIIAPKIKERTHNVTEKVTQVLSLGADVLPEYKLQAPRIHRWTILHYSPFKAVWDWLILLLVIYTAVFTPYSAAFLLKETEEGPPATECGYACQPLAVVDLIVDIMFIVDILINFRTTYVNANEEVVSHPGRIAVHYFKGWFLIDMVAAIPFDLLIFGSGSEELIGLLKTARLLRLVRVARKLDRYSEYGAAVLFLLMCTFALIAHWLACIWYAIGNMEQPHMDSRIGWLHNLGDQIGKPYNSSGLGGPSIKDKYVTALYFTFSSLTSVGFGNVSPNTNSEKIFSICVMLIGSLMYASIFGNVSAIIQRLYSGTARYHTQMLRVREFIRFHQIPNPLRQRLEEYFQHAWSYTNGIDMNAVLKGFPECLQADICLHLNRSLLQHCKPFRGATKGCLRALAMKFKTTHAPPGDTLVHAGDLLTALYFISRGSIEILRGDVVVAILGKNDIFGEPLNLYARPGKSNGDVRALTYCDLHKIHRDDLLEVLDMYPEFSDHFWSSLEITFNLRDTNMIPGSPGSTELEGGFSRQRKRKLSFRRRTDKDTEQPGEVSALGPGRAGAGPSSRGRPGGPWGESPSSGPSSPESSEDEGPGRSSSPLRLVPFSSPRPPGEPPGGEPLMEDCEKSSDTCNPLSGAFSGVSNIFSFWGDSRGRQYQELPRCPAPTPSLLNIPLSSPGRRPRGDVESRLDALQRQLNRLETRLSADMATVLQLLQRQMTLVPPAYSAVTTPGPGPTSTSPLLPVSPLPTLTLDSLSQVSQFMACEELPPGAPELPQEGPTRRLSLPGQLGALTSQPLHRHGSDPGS

COc1cccc(CNCC(O)CNC(=O)CC(c2ccccc2)c2ccccc2)c1 (racemic)
pIC50 (Cholinesterase [1]): 6.60
pIC50 (Cholinesterase [2]): 6.18

O=C(CC(c1ccccc1)c1ccccc1)NCC(O)CNCc1cccc(C(F)(F)F)c1 (racemic)
pIC50 (Cholinesterase [1]): 6.39
pIC50 (Cholinesterase [2]): 5.76

CC(C)c1cccc(CNCC(O)CNC(=O)CC(c2ccccc2)c2ccccc2)c1 (racemic)
pIC50 (Cholinesterase [1]): 6.59
pIC50 (Cholinesterase [2]): 6.20

O=C(CC(c1ccccc1)c1ccccc1)NC[C@H](O)CNCC1CCCCC1
Activity [3]: Toxic
inhibition at 10 µM (hERG (KCNH2)): < 50%
inhibition (INH) (Cytochrome P450 2D6): Active
CC50 at 72 h (in vitro): 2.85 µM
Activity [4]: Toxic
Activity [5]: <= 190%
inhibition (INH) (Cytochrome P450 3A4): Active

C[C@H](NCC(O)CNC(=O)CC(c1ccccc1)c1ccccc1)c1ccccc1 (mixture of isomers)
pIC50 (Cholinesterase [2]): 5.32
inhibition (Cholinesterase [6]): 34%

CC(C)(NCC(O)CNC(=O)CC(c1ccccc1)c1ccccc1)c1ccccc1 (racemic)
inhibition (Cholinesterase [6]): < 20%
inhibition [7]: 44%

CC(C)(C)c1ccc(CNCC(O)CNC(=O)CC(c2ccccc2)c2ccccc2)cc1 (racemic)
pIC50 (Cholinesterase [1]): 6.80
pIC50 (Cholinesterase [2]): 5.71

COc1cccc(CNCC(O)CNC(=O)C(c2ccccc2)c2ccccc2)c1 (racemic)
pIC50 (Cholinesterase [2]): 5.66
inhibition (Cholinesterase [6]): 70%

O=C(CC(c1ccccc1)c1ccccc1)NC[C@@H](O)CNCC1CCCCC1
inhibition at 10 µM (hERG (KCNH2)): < 50%
inhibition (INH) (Cytochrome P450 2D6): Active
CC50 at 72 h (in vitro): 3.21 µM
Activity [5]: <= 190%
inhibition (INH) (Cytochrome P450 3A4): Active

C[C@H](NCC(O)CNC(=O)C(c1ccccc1)c1ccccc1)c1ccccc1 (mixture of isomers)
pIC50 (Cholinesterase [2]): 5.34
inhibition (Cholinesterase [6]): < 20%

O=C(CC(c1ccccc1)c1ccccc1)NCC(O)CNCC1CC1 (racemic)
pIC50 (cells [8]): < 5.00
pIC50 (GABA transporter 4): < 5.00
pIC50 (Cholinesterase [2]): 5.45
inhibition (Cholinesterase [6]): 46%
pIC50 (cells [9]): < 5.00
pIC50 [10]: < 5.00

O=C(NCC(O)CNCc1ccccc1)C(c1ccccc1)c1ccccc1 (racemic)
pIC50 (cells [8]): < 5.00
pIC50 (GABA transporter 4): < 5.00
pIC50 (Cholinesterase [2]): 5.60
inhibition (Cholinesterase [6]): < 20%
pIC50 (cells [9]): < 5.00
pIC50 [10]: < 5.00

CC(C)(C)c1cccc(CNCC(O)CNC(=O)C(c2ccccc2)c2ccccc2)c1 (racemic)
pIC50 (cells [8]): < 5.00
pIC50 (GABA transporter 4): < 5.00
pIC50 (Cholinesterase [1]): 7.00
pIC50 (Cholinesterase [2]): 6.59
pIC50 (cells [9]): < 5.00
pIC50 [10]: < 5.00

CC(C)(NCC(O)CNC(=O)C(c1ccccc1)c1ccccc1)c1ccccc1 (racemic)
inhibition (Cholinesterase [6]): < 20%
inhibition [7]: 42%

CC(C)(C)c1ccc(CNCC(O)CNC(=O)C(c2ccccc2)c2ccccc2)cc1 (racemic)
pIC50 (Cholinesterase [1]): 6.52
pIC50 (Cholinesterase [2]): 5.95

O=C(NCC(O)CNCC1CC1)C(c1ccccc1)c1ccccc1 (racemic)
inhibition (Cholinesterase [6]): < 20%
inhibition [7]: 47%

O=C(NCC(O)CNCC1CCCCC1)C(c1ccccc1)c1ccccc1 (stereo not drawn)
inhibition (INH) (Cytochrome P450 2D6): Active
Drug metabolism [11]: Metabolite_Detected
inhibition (INH) (Cytochrome P450 3A4): Active
remaining at 2 h [12]: > 80%

O=C(CC(c1ccccc1)c1ccccc1)NCC(O)CNCc1ccccc1 (racemic)
Drug metabolism [13]: Metabolite_Detected
pIC50 (Cholinesterase [1]): 6.55
inhibition (INH) (Cytochrome P450 2D6): Active
pIC50 (Cholinesterase [2]): 6.21
Drug metabolism [11]: Metabolite_Detected
inhibition (INH) (Cytochrome P450 3A4): Active
remaining at 2 h [12]: 66%
Drug metabolism [14]: Metabolite_Detected

CC(C)(C)c1cccc(CNCC(O)CNC(=O)CC(c2ccccc2)c2ccccc2)c1 (racemic)
pIC50 (cells [8]): < 5.00
pIC50 (GABA transporter 4): < 5.00
pIC50 (Cholinesterase [1]): 6.74
pIC50 (Cholinesterase [2]): 6.49
pIC50 (cells [9]): < 5.00
pIC50 [10]: < 5.00

O=C(NCC(O)CNCc1cccc(C(F)(F)F)c1)C(c1ccccc1)c1ccccc1 (racemic)
pIC50 (Cholinesterase [1]): 6.15
pIC50 (Cholinesterase [2]): 6.02

O=C(NC[C@H](O)CNCC1CCCCC1)C(c1ccccc1)c1ccccc1
inhibition (INH) (Cytochrome P450 2D6): Active
CC50 at 72 h (in vitro): 18.7 µM
inhibition (INH) (Cytochrome P450 3A4): Active

O=C(NC[C@@H](O)CNCC1CCCCC1)C(c1ccccc1)c1ccccc1
inhibition (INH) (Cytochrome P450 2D6): Active
CC50 at 72 h (in vitro): 25.8 µM
inhibition (INH) (Cytochrome P450 3A4): Active
